Measured values: PubChem BioAssay AID1918995 (Molecular Pharmacology Branch, DTP, NCI, 2023)

Test system: 324938-238-R-J1-PDC complex spheroid growth, % test/control
Assay: Anticancer human tumor 324938-238-R-J1-PDC patient-derived bladder carcinoma cell line growth inhibition [AhR]
Details: for IC50: curve of first compound; for viability, T/C: stronger effect = lower value
Outline: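 Spheroids combined tumor cells with HUVEC endothelial cells and human MSCs as stroma. AhR antagonists were paired with standard or investigational drugs, each dosed in half-log steps down from near clinical Cmax, or from 10 microM where Cmax was unknown.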

[1] = second compound 0.1 µM, first compound 0.00316 µM
[2] = second compound 0.1 µM, first compound 0.01 µM
[3] = second compound 0.1 µM, first compound 0.0316 µM
[4] = second compound 0.1 µM, first compound 0.1 µM
[5] = second compound 0.316 µM, first compound 0.00316 µM
[6] = second compound 0.316 µM, first compound 0.01 µM
[7] = second compound 0.316 µM, first compound 0.0316 µM
[8] = second compound 0.316 µM, first compound 0.1 µM
[9] = second compound 1 µM, first compound 0.00316 µM
[10] = second compound 1 µM, first compound 0.01 µM
[11] = second compound 1 µM, first compound 0.0316 µM
[12] = second compound 1 µM, first compound 0.1 µM
[13] = second compound 3.16 µM, first compound 0.00316 µM
[14] = second compound 3.16 µM, first compound 0.01 µM
[15] = second compound 3.16 µM, first compound 0.0316 µM
[16] = second compound 3.16 µM, first compound 0.1 µM
[17] = second compound 10 µM, first compound 0.00316 µM
[18] = second compound 10 µM, first compound 0.01 µM
[19] = second compound 10 µM, first compound 0.0316 µM
[20] = second compound 10 µM, first compound 0.1 µM
[21] = second compound 0.1 µM, first compound 0.316 µM
[22] = second compound 0.1 µM, first compound 1 µM
[23] = second compound 0.1 µM, first compound 3.16 µM
[24] = second compound 0.1 µM, first compound 10 µM
[25] = second compound 0.316 µM, first compound 0.316 µM
[26] = second compound 0.316 µM, first compound 1 µM
[27] = second compound 0.316 µM, first compound 3.16 µM
[28] = second compound 0.316 µM, first compound 10 µM
[29] = second compound 1 µM, first compound 0.316 µM
[30] = second compound 1 µM, first compound 1 µM
[31] = second compound 1 µM, first compound 3.16 µM
[32] = second compound 1 µM, first compound 10 µM
[33] = second compound 3.16 µM, first compound 0.316 µM
[34] = second compound 3.16 µM, first compound 1 µM
[35] = second compound 3.16 µM, first compound 3.16 µM
[36] = second compound 3.16 µM, first compound 10 µM
[37] = second compound 10 µM, first compound 0.316 µM
[38] = second compound 10 µM, first compound 1 µM
[39] = second compound 10 µM, first compound 3.16 µM
[40] = second compound 10 µM, first compound 10 µM
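Further: spheroids exposed to agents for seven days before viability read.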

| Compound | IC50 (second compound 0.1 µM) [nM] | IC50 (second compound 0.316 µM) [nM] | IC50 (second compound 1 µM) [nM] | IC50 (second compound 3.16 µM) [nM] | IC50 (second compound 10 µM) [nM] | viability, T/C [3] [%] | viability, T/C [4] [%] | viability, T/C [7] [%] | viability, T/C [8] [%] | viability, T/C [11] [%] | viability, T/C [12] [%] | viability, T/C [15] [%] | viability, T/C [16] [%] | viability, T/C [19] [%] | viability, T/C [20] [%] | viability, T/C [21] [%] | viability, T/C [22] [%] | viability, T/C [25] [%] | viability, T/C [26] [%] | viability, T/C [29] [%] | other results |
| --- | --- | --- | --- | --- | --- | --- | --- | --- | --- | --- | --- | --- | --- | --- | --- | --- | --- | --- | --- | --- | --- |
| CC[C@@]1(O)C(=O)OCc2c1cc1n(c2=O)Cc2cc3c(CN(C)C)c(O)ccc3nc2-1 + Cc1ccccc1N=Nc1ccc(NC(=O)c2ccnn2C)c(C)c1 | 19.6 | 20.7 | 18.5 | 17 | 20 | 32.8 | 16.2 | 38.1 | 17.4 | 36 | 15.7 | 34.7 | 15.6 | 41.3 | 18.7 |  |  |  |  |  | viability, T/C (second compound 0.1 µM, first compound 0.000316 µM): 102%; viability, T/C (second compound 0.1 µM, first compound 0.001 µM): 107%; viability, T/C [1]: 88.9%; viability, T/C [2]: 74.6%; viability, T/C (second compound 0.316 µM, first compound 0.000316 µM): 91.9%; viability, T/C (second compound 0.316 µM, first compound 0.001 µM): 101%; viability, T/C [5]: 94.8%; viability, T/C [6]: 70.7%; viability, T/C (second compound 1 µM, first compound 0.000316 µM): 86.8%; viability, T/C (second compound 1 µM, first compound 0.001 µM): 98.5%; viability, T/C [9]: 86.6%; viability, T/C [10]: 66%; viability, T/C (second compound 3.16 µM, first compound 0.000316 µM): 86.2%; viability, T/C (second compound 3.16 µM, first compound 0.001 µM): 86.3%; viability, T/C [13]: 87%; viability, T/C [14]: 61.9%; viability, T/C (second compound 10 µM, first compound 0.000316 µM): 83.9%; viability, T/C (second compound 10 µM, first compound 0.001 µM): 88.3%; viability, T/C [17]: 73.6%; viability, T/C [18]: 63.9% |
| COc1cc(C2c3cc4c(cc3C(OC3OC5COC(C)OC5C(O)C3O)C3COC(=O)C23)OCO4)cc(OC)c1O (stereo not given) + Cc1ccccc1N=Nc1ccc(NC(=O)c2ccnn2C)c(C)c1 | 391 | 303 | 309 | 249 | 287 | 89.2 | 79.3 | 78.4 | 87.8 | 79.2 | 75.5 | 68.2 | 61.6 | 70.5 | 65.5 | 52.3 | 33.4 | 48.7 | 33 | 47.2 | viability, T/C [23]: 28%; viability, T/C [24]: 19.5%; viability, T/C [27]: 27%; viability, T/C [28]: 16.9%; viability, T/C [30]: 29.6%; viability, T/C [31]: 23.7%; viability, T/C [32]: 16.4%; viability, T/C [33]: 46.4%; viability, T/C [34]: 33.3%; viability, T/C [35]: 28%; viability, T/C [36]: 16%; viability, T/C [37]: 43.3%; viability, T/C [38]: 38.7%; viability, T/C [39]: 31.8%; viability, T/C [40]: 18.5% |
| COc1cccc2c1C(=O)c1c(O)c3c(c(O)c1C2=O)CC(O)(C(=O)CO)CC3OC1CC(N)C(O)C(C)O1 (stereo not given) + Cc1ccccc1N=Nc1ccc(NC(=O)c2ccnn2C)c(C)c1 | < 31.6 | < 31.6 | < 31.6 | < 31.6 | < 31.6 | 34.7 | 29.3 | 37.7 | 35.9 | 35.1 | 31.4 | 34.7 | 31.7 | 38 | 37.6 | 18.9 | 4.96 | 13.8 | 4.13 | 16.4 | viability, T/C [23]: 0.1%; viability, T/C [24]: 0.15%; viability, T/C [27]: 0.05%; viability, T/C [28]: 0.13%; viability, T/C [30]: 3.09%; viability, T/C [31]: 0.05%; viability, T/C [32]: 0.12%; viability, T/C [33]: 15.9%; viability, T/C [34]: 3.16%; viability, T/C [35]: 0.08%; viability, T/C [36]: 0.13%; viability, T/C [37]: 22%; viability, T/C [38]: 5.73%; viability, T/C [39]: 0.14%; viability, T/C [40]: 0.2% |
| Nc1ccn(C2OC(CO)C(O)C2(F)F)c(=O)n1 (stereo not given) + Cc1ccccc1N=Nc1ccc(NC(=O)c2ccnn2C)c(C)c1 | 37.1 | < 31.6 | < 31.6 | < 31.6 | < 31.6 | 53.1 | 32.3 | 47.2 | 24.7 | 43.7 | 34.1 | 46.6 | 32.8 | 44.9 | 34.8 | 15.5 | 14.1 | 15.4 | 12.3 | 16.8 | viability, T/C [23]: 10.4%; viability, T/C [24]: 8.56%; viability, T/C [27]: 10.3%; viability, T/C [28]: 8.15%; viability, T/C [30]: 13.2%; viability, T/C [31]: 9.31%; viability, T/C [32]: 7.14%; viability, T/C [33]: 15.7%; viability, T/C [34]: 12.6%; viability, T/C [35]: 10.9%; viability, T/C [36]: 7.52%; viability, T/C [37]: 19.2%; viability, T/C [38]: 14.3%; viability, T/C [39]: 13.1%; viability, T/C [40]: 8.08% |
| Nc1ncn(C2CC(O)C(CO)O2)c(=O)n1 (stereo not given) + Cc1ccccc1N=Nc1ccc(NC(=O)c2ccnn2C)c(C)c1 | > 1000 | > 1000 | > 1000 | > 1000 | > 1000 | 97.8 | 83.3 | 89.4 | 78.5 | 89.5 | 74.7 | 77.2 | 68.7 | 78.6 | 73.6 | 71.2 | 65.3 | 69.7 | 64.8 | 82.3 | viability, T/C [1]: 90.1%; viability, T/C [2]: 94.7%; viability, T/C [5]: 81.9%; viability, T/C [6]: 87.9%; viability, T/C [9]: 85.3%; viability, T/C [10]: 83%; viability, T/C [30]: 62%; viability, T/C [13]: 74.9%; viability, T/C [14]: 78.7%; viability, T/C [33]: 70%; viability, T/C [34]: 60.9%; viability, T/C [17]: 77.9%; viability, T/C [18]: 76.1%; viability, T/C [37]: 73.4%; viability, T/C [38]: 60.7% |
